Measured values taken from PubChem BioAssay AID248 (DTP/NCI, 2004).
Values joined by “and” are separate entries in the source; they are usually repeats but may differ in a detail not shown here. Equal values may be shown once. Toxic doses and inconclusive results are not listed.

System: L1210 leukemia ip in BDF1 mice, survival T/C
Assay: NCI In Vivo Anticancer Drug Screen. Data for tumor model L1210 Leukemia (intraperitoneal) in B6D2F1 (BDF1) mice
Conditions: endpoint: mean survival time, higher = longer survival
Outline: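 Antitumor effect is assessed in tumor-bearing animals. Survival in the compound arm is compared with a vehicle-dosed control arm and expressed as their quotient.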

[1] = dose: 100.0 mg/kg/injection, schedule: Q01DX009 (ip), vehicle: Klucel (hydroxypropylcellulose) (HPC)
[2] = dose: 200.0 mg/kg/injection, schedule: Q01DX009 (ip), vehicle: Klucel (hydroxypropylcellulose) (HPC)
[3] = dose: 75.0 mg/kg/injection, schedule: Q01DX001 (ip), vehicle: saline
[4] = dose: 150.0 mg/kg/injection, schedule: Q01DX001 (ip), vehicle: saline
[5] = dose: 100.0 mg/kg/injection, schedule: Q04DX002 (ip), vehicle: saline with Tween-80
[6] = dose: 200.0 mg/kg/injection, schedule: Q04DX002 (ip), vehicle: saline with Tween-80
[7] = dose: 400.0 mg/kg/injection, schedule: Q04DX002 (ip), vehicle: saline with Tween-80
[8] = dose: 100.0 mg/kg/injection, schedule: Q04DX003 (ip), vehicle: saline
[9] = dose: 200.0 mg/kg/injection, schedule: Q04DX003 (ip), vehicle: saline
[10] = dose: 100.0 mg/kg/injection, schedule: Q04DX003 (ip), vehicle: Klucel (hydroxypropylcellulose) (HPC)
[11] = dose: 200.0 mg/kg/injection, schedule: Q04DX003 (ip), vehicle: Klucel (hydroxypropylcellulose) (HPC)
[12] = dose: 400.0 mg/kg/injection, schedule: Q04DX003 (ip), vehicle: Klucel (hydroxypropylcellulose) (HPC)
[13] = dose: 50.0 mg/kg/injection, schedule: Q01DX009 (ip), vehicle: Klucel (hydroxypropylcellulose) (HPC)
[14] = dose: 100.0 mg/kg/injection, schedule: Q01DX001 (ip), vehicle: saline
[15] = dose: 200.0 mg/kg/injection, schedule: Q01DX001 (ip), vehicle: saline

Structure (SMILES): CC1OC(=O)C(C(C)C)NC(=O)C(C(C)C)OC(=O)C(C(C)C)NC(=O)C(C)OC(=O)C(C(C)C)NC(=O)C(C(C)C)OC(=O)C(C(C)C)NC(=O)C(C)OC(=O)C(C(C)C)NC(=O)C(C(C)C)OC(=O)C(C(C)C)NC1=O (configuration not stated)
- T/C (dose: 0.13 mg/kg/injection, schedule: Q01DX001 (ip), vehicle: saline): 103 % of control
- T/C (dose: 0.25 mg/kg/injection, schedule: Q01DX001 (ip), vehicle: saline): 101 % of control
- T/C (dose: 0.5 mg/kg/injection, schedule: Q01DX001 (ip), vehicle: saline): 100 % of control
- T/C (dose: 1.0 mg/kg/injection, schedule: Q01DX001 (ip), vehicle: saline): 98 % of control
- T/C (dose: 1.25 mg/kg/injection, schedule: Q01DX009 (ip), vehicle: saline with Tween-80): 113 % of control
- T/C (dose: 2.5 mg/kg/injection, schedule: Q01DX009 (ip), vehicle: saline with Tween-80): 121 % of control
- T/C (dose: 5.0 mg/kg/injection, schedule: Q01DX009 (ip), vehicle: saline with Tween-80): 113 % of control
- T/C (dose: 10.0 mg/kg/injection, schedule: Q01DX009 (ip), vehicle: saline with Tween-80): 90 % of control

Structure (SMILES): CCOC(=O)c1ccc(NC(=O)Nc2ccccc2C(=O)OC)cc1
- T/C [1]: 110 % of control
- T/C [2]: 100 % of control
- T/C (dose: 400.0 mg/kg/injection, schedule: Q01DX009 (ip), vehicle: Klucel (hydroxypropylcellulose) (HPC)): 94 % of control

Structure (SMILES): OCCc1ccc[nH]1
- T/C [3]: 105 % of control
- T/C [4]: 105 % of control
- T/C (dose: 300.0 mg/kg/injection, schedule: Q01DX001 (ip), vehicle: saline): 105 % of control

Structure (SMILES): Cc1ncc(CO)c(/C=N/OCc2ccc(OCc3ccccc3)cc2)c1O
- T/C (dose: 100.0 mg/kg/injection, schedule: Q04DX003 (ip), vehicle: saline with Tween-80): 102 % of control
- T/C (dose: 200.0 mg/kg/injection, schedule: Q04DX003 (ip), vehicle: saline with Tween-80): 100 % of control

Structure (SMILES): O=C(CBr)NCCCCc1ccc(C(=O)O)cc1
- T/C (dose: 10.0 mg/kg/injection, schedule: Q01DX001 (ip), vehicle: carboxymethylcellulose (CMC)): 92 % of control
- T/C (dose: 20.0 mg/kg/injection, schedule: Q01DX001 (ip), vehicle: carboxymethylcellulose (CMC)): 100 % of control
- T/C (dose: 40.0 mg/kg/injection, schedule: Q01DX001 (ip), vehicle: carboxymethylcellulose (CMC)): 103 % of control

Structure (SMILES): C=COC(=O)c1ccccc1
- T/C (dose: 100.0 mg/kg/injection, schedule: Q01DX009 (ip), vehicle: saline with Tween-80): 98 % of control
- T/C [5]: 93 % of control
- T/C (dose: 200.0 mg/kg/injection, schedule: Q01DX009 (ip), vehicle: saline with Tween-80): 98 % of control
- T/C [6]: 93 % of control
- T/C (dose: 400.0 mg/kg/injection, schedule: Q01DX009 (ip), vehicle: saline with Tween-80): 95 % of control
- T/C [7]: 93 % of control

Structure (SMILES): C=CCN(CC=C)c1ccc(N(CC)CC)cc1
- T/C [1]: 86 % of control
- T/C [8]: 97 % of control
- T/C [2]: 86 % of control
- T/C [9]: 105 % of control
- T/C (dose: 400.0 mg/kg/injection, schedule: Q04DX003 (ip), vehicle: saline): 105 % of control

Structure (SMILES): CCCCCSP(SCCCCC)c1ccccc1
- T/C [1]: 92 % of control
- T/C [2]: 94 % of control

Structure (SMILES): OC1(CCCc2ccccc2)CCNCC1
- T/C [3]: 104 % of control
- T/C [4]: 110 % of control

Structure (SMILES): CCOC(=O)NOP(=O)(N1CC1(C)C)N1CC1(C)C (configuration not stated)
- T/C (dose: 100.0 mg/kg/injection, schedule: Q04DX002 (ip), vehicle: saline): 207 % of control
- T/C (dose: 200.0 mg/kg/injection, schedule: Q04DX002 (ip), vehicle: saline): 86 % of control

Structure (SMILES): O/N=C\CC/C=N\O
- T/C [10]: 105 % of control
- T/C [11]: 98 % of control
- T/C [12]: 100 % of control

Structure (SMILES): CN(C)OC(=O)Nc1cccc(C(=O)ON(C)C)c1
- T/C (dose: 100.0 mg/kg/injection, schedule: Q04DX002 (ip), vehicle: DMSO): 99 % of control
- T/C (dose: 200.0 mg/kg/injection, schedule: Q04DX002 (ip), vehicle: DMSO): 101 % of control
- T/C (dose: 400.0 mg/kg/injection, schedule: Q04DX002 (ip), vehicle: DMSO): 101 % of control

Structure (SMILES): O=C(O)CNC(=S)SCc1ccccc1
- T/C (dose: 100.0 mg/kg/injection, schedule: Q04DX002 (ip), vehicle: gum acacia): 97 % of control
- T/C (dose: 200.0 mg/kg/injection, schedule: Q04DX002 (ip), vehicle: gum acacia): 87 % of control
- T/C (dose: 400.0 mg/kg/injection, schedule: Q04DX002 (ip), vehicle: gum acacia): 97 % of control

Structure (SMILES): O=C(CCl)Nc1ccc(N=Nc2ccccc2)cc1
- T/C (dose: 25.0 mg/kg/injection, schedule: Q01DX009 (ip), vehicle: Klucel (hydroxypropylcellulose) (HPC)): 90 % of control
- T/C [13]: 90 % of control

Structure (SMILES): O=C(O)c1cccc(F)c1C(=O)c1ccc2ccccc2c1
- T/C (dose: 75.0 mg/kg/injection, schedule: Q01DX001 (ip), vehicle: carboxymethylcellulose (CMC)): 96 % of control
- T/C [10]: 97 % of control
- T/C (dose: 150.0 mg/kg/injection, schedule: Q01DX001 (ip), vehicle: carboxymethylcellulose (CMC)): 95 % of control
- T/C [11]: 105 % of control
- T/C (dose: 300.0 mg/kg/injection, schedule: Q01DX001 (ip), vehicle: carboxymethylcellulose (CMC)): 93 % of control

Structure (SMILES): Cc1[nH]c(=O)[nH]c(=O)c1/C=C/C(=O)NC(CO)CC(C)C (configuration not stated)
- T/C (dose: 12.5 mg/kg/injection, schedule: Q01DX009 (ip), vehicle: saline): 98 % of control
- T/C (dose: 25.0 mg/kg/injection, schedule: Q01DX009 (ip), vehicle: saline): 102 % of control and 114 % of control
- T/C (dose: 50.0 mg/kg/injection, schedule: Q01DX009 (ip), vehicle: saline): 98 % of control
- T/C (dose: 100.0 mg/kg/injection, schedule: Q01DX009 (ip), vehicle: saline): 107 % of control and 108 % of control
- T/C (dose: 200.0 mg/kg/injection, schedule: Q01DX009 (ip), vehicle: saline): 101 % of control
- T/C (dose: 300.0 mg/kg/injection, schedule: Q01DX009 (ip), vehicle: saline): 114 % of control

Structure (SMILES): N#CCCC(CCC#N)c1cccc(C(CCC#N)CCC#N)n1
- T/C (dose: 12.5 mg/kg/injection, schedule: Q04DX003 (ip), vehicle: Klucel (hydroxypropylcellulose) (HPC)): 96 % of control
- T/C (dose: 25.0 mg/kg/injection, schedule: Q04DX003 (ip), vehicle: Klucel (hydroxypropylcellulose) (HPC)): 95 % of control
- T/C (dose: 50.0 mg/kg/injection, schedule: Q04DX003 (ip), vehicle: Klucel (hydroxypropylcellulose) (HPC)): 90 % of control
- T/C [10]: 96 % of control

Structure (SMILES): CCOc1ccc2nc(N)sc2c1
- T/C [13]: 94 % of control
- T/C [1]: 110 % of control
- T/C [8]: 99 % of control
- T/C [2]: 111 % of control
- T/C [9]: 89 % of control

Structure (SMILES): Cc1ccc2c(c1N)C(=O)c1ccccc1C2=O
- T/C (dose: 100.0 mg/kg/injection, schedule: Q01DX001 (ip), vehicle: carboxymethylcellulose (CMC)): 103 % of control
- T/C (dose: 200.0 mg/kg/injection, schedule: Q01DX001 (ip), vehicle: carboxymethylcellulose (CMC)): 92 % of control
- T/C (dose: 400.0 mg/kg/injection, schedule: Q01DX001 (ip), vehicle: carboxymethylcellulose (CMC)): 96 % of control

Structure (SMILES): COc1ccc2c3c1O[C@H]1C(O)C=C[C@H]4[C@@H](C2)N(C)CC[C@]314 (some centres not stated)
- T/C [14]: 95 % of control
- T/C [15]: 95 % of control

Structure (SMILES): O=C(CCCC(=O)NNC(=O)Nc1ccc(Br)cc1)NNC(=O)Nc1ccc(Br)cc1
- T/C (dose: 50.0 mg/kg/injection, schedule: Q01DX001 (ip), vehicle: saline): 93 % of control
- T/C [14]: 100 % of control
- T/C [15]: 96 % of control
- T/C (dose: 400.0 mg/kg/injection, schedule: Q01DX001 (ip), vehicle: saline): 96 % of control

Structure (SMILES): CCCCC(CSC#N)SC#N (configuration not stated)
- T/C (dose: 3.13 mg/kg/injection, schedule: Q01DX009 (ip), vehicle: saline with Tween-80): 94 % of control
- T/C (dose: 6.25 mg/kg/injection, schedule: Q01DX009 (ip), vehicle: saline with Tween-80): 94 % of control
- T/C (dose: 12.5 mg/kg/injection, schedule: Q01DX009 (ip), vehicle: saline with Tween-80): 94 % of control

Structure (SMILES): Cc1ccc(NC(=O)C(Cl)(Cl)Cl)cc1C
- T/C [10]: 93 % of control
- T/C [11]: 101 % of control
- T/C [12]: 90 % of control

Structure (SMILES): CC(C)(C)c1cc(NS(=O)(=O)c2ccccc2)c(N=[N+]=[N-])c(Cl)c1NS(=O)(=O)c1ccccc1
- T/C [5]: 102 % of control
- T/C [6]: 91 % of control
- T/C [7]: 102 % of control

Structure (SMILES): O=[As](O)(CC(O)COc1ccccc1)c1ccccc1 (configuration not stated)
- T/C (dose: 6.25 mg/kg/injection, schedule: Q01DX001 (ip), vehicle: saline with Tween-80): 98 % of control
- T/C (dose: 12.5 mg/kg/injection, schedule: Q01DX001 (ip), vehicle: saline with Tween-80): 98 % of control
